Source: patent publication US20250213563A1, “SUBSTITUTED PYRIMIDIN-4(3H)-ONES FOR USE IN TREATING CANCER” (NAVIRE PHARMA, INC., priority 2021, published 2025)
Like-named read-outs stand apart in the source and are kept apart here.

How the values were obtained:
[1] = Single-dose pharmacokinetics, Beagle dog; format: in vivo, male); settings: free base; for AUC(0-t): read-out: AUC0→24
Procedure: (§1) The pharmacokinetic (PK) parameters of Compound (10b) (freebase) were determined following single intravenous (IV) and oral (PO) administration in female CD-1 mouse, female C57BL/6 mouse (PO only), male Sprague Dawley rat, male Beagle dog, and male Cynomolgus monkey. Additional evaluation of the PK properties of Compound (10b) was obtained following single dose PO administration in female CD-1 mouse, male Sprague Dawley rat and male Beagle dog over a dose range spanning 10 to 300 mg/kg (mouse and rat) and 1 to 100 mg/kg (dog). The intravenous dose solutions were prepared in 20% DMSO-60% PEG400-20% water and the oral dose solutions as suspensions in 0.5% methylcellulose in water, unless otherwise noted. Plasma concentration profiles were generated from serial sampling in individual animals up to 24 hours post dose, except for the studies in mice where composite sampling methods were used (i.e. 3 sampling times per mouse; 9 mice per group). […] Exposures increased with increasing dose level across species, in a dose-proportional manner in mouse and dog, and in a greater than dose-proportional manner in rat (80× increase in AUC with a 30× increase in dosage).

[2] = Single-dose pharmacokinetics, Cynomolgus monkey; format: in vivo, male); settings: free base; for AUC(0-t): read-out: AUC0→24
Procedure: as §1

[3] = target: T1, Protein kinase C eta (PRKCH) (Homo sapiens, UniProt P24723); experiment: KINOMEscan competition binding; settings: read-out: ligand binding, % control
T1 construct: purchased DiscoverX (KINOMEscan platform)
Procedure: (§2) Activity of Compound (10b) (1 μM) was assessed against a panel of 419 human kinases (including a set of disease-relevant mutant variants). Assays were conducted using the KINOMEscan™ platform from DiscoverX which measures compound interaction with kinases using active site-directed competition binding assays. Displacement of ligand binding to the kinase by <35% of the control value is considered significant. Of the 419 kinases tested, only 4 kinases reached this level of displacement: Protein kinase C eta (PRKCH), 34% control; Large tumor suppressor kinase 1 (LATS1), 32% control; General control nonderepressible 2 kinase (GCN2), 21% control; and Hematopoietic Progenitor Kinase 1 (HPK1), 4.4% control.

[4] = target: T2, Large tumor suppressor kinase 1 (LATS1) (Homo sapiens, UniProt O95835); experiment: KINOMEscan competition binding; settings: read-out: ligand binding, % control
T2 construct: purchased DiscoverX (KINOMEscan platform)
Procedure: as §2

[5] = system: General control nonderepressible 2 kinase (GCN2); experiment: KINOMEscan competition binding; set-up: species or system human; settings: 1 μM
Procedure: as §2

[6] = target: T3, Hematopoietic Progenitor Kinase 1 (HPK1) (Homo sapiens, UniProt Q92918); experiment: KINOMEscan competition binding and Kd dose-response
T3 construct: purchased DiscoverX (KINOMEscan platform)
Procedure: as §2
HPK1 is a hematopoietic cell-restricted serine/threonine kinase and is not expressed in any major organs. HPK1 has been implicated in activation of c-Jun N-terminal kinases (JNK) and genetic disruption of HPK1 is reported to enhance the antitumor immune response of T cells and dendritic cells (Hu et al 1996; Sawasdikosol et al 2012).

[7] = target: hERG potassium channel (Homo sapiens, UniProt Q12809); experiment: hERG manual whole cell patch clamp in CHO cells
Procedure: HERG channel currents were recorded from single cells using standard whole cell recording techniques. The cells were voltage clamped at a holding potential of −80 mV. The hERG current was activated by depolarizing at +20 mV for 5 sec, after which the current was taken back to −50 mV for 5 sec to remove the inactivation and observe the deactivating tail current. The K+ tail current through HERG channels observed during this step was allowed to stabilize under continuous bath perfusion. […] Steady state was considered reached when three consecutive super-imposable current records were collected.

[8] = system: panel of 419 human kinases; experiment: KINOMEscan competition binding panel; settings: 1 μM; 419 kinases tested
Procedure: as §2

[9] = system: KYSE-520 xenograft tumors; experiment: Pharmacodynamics in KYSE-520 xenograft tumors (DUSP6 / MPAS-plus mRNA); format: in vivo, NSG mice; settings: for IC50: Mus musculus, KYSE-520, plasma concentration
Procedure: KYSE-520 (EGFRamp) cells were subcutaneously implanted in NSG mice and allowed to grow to an average tumor volume of 340 mm^3 as monitored by caliper measurements. At this point, animals were randomized and treated with vehicle, Compound (10b) 25 mg/kg or Compound (10b) 100 mg/kg PO. Plasma and tumor samples were harvested 4, 16 and 24 hours after a single dose. Compound (10b) plasma concentration and tumor pERK levels were determined. Data represent mean±SEM. N=4 mice per group.
In addition to DUSP6 mRNA levels, other MAPK pathway genes were examined through sequencing analysis. The MPAS (MAPK pathway activity score) signature is a signature of 10 genes that reflects MAPK pathway activity. This gene signature has been used in the clinic to evaluate the pharmacodynamic effect of the ERK inhibitor GDC-0994 in tumors. Based on the MPAS signature, a 13-gene signature (“MPAS-plus”) was developed, which includes the 10 MPAS genes and three additional MAPK-targeted genes (ETV1, EGR1 and FOSL1) that are modulated by SHP2 inhibitors across multiple cell line models (data not shown).

[10] = Single-dose pharmacokinetics, summary across species; format: in vivo; settings: both sexes, CD-1, C57BL/6, Sprague Dawley, Beagle, mouse, rat, dog, monkey, plasma
Procedure: as §1

[11] = Single-dose pharmacokinetics, CD-1 mouse; format: in vivo, mouse (CD-1, female); settings: for AUC(0-t): read-out: AUC0→24
Procedure: as §1

[12] = male, Beagle, dog, plasma, IV 1 mg/kg
[13] = male, Beagle, dog, plasma, oral 10 mg/kg
[14] = male, cynomolgus monkey, plasma, IV 0.3 mg/kg
[15] = male, cynomolgus monkey, plasma, oral 1 mg/kg
[16] = female, CD-1, mouse, plasma, IV 1 mg/kg, free base
[17] = female, CD-1, mouse, plasma, oral 10 mg/kg, free base

Sequence of hERG potassium channel (Q12809 whole entry): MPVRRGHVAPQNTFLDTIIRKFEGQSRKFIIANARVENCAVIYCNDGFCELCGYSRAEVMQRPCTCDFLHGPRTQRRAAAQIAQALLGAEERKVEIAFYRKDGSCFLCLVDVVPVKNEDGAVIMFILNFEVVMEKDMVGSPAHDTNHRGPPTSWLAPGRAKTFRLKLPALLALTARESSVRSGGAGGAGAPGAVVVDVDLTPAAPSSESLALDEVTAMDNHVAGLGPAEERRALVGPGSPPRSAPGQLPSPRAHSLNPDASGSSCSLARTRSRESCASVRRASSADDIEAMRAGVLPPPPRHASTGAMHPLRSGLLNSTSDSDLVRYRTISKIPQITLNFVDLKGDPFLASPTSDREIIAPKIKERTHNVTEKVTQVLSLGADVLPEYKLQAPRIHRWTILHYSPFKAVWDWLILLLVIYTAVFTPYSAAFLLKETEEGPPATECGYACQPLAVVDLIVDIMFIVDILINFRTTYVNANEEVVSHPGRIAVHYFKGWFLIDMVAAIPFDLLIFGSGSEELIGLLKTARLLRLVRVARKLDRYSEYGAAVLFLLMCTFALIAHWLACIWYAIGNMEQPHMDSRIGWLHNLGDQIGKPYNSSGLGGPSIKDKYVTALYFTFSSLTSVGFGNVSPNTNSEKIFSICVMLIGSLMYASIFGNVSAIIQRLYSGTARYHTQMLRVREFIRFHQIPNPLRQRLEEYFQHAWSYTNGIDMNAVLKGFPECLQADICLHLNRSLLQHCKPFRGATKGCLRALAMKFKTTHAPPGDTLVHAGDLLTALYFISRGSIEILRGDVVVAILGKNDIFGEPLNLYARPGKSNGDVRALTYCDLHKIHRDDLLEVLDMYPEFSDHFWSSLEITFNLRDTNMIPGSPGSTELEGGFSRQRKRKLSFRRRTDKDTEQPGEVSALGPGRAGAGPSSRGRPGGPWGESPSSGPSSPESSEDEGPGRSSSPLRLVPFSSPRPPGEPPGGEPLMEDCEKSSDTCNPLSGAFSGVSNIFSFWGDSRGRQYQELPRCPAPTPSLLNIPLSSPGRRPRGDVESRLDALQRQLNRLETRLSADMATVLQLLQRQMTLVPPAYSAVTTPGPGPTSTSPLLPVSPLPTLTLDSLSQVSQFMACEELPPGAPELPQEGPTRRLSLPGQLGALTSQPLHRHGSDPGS
T3 sequence (Q92918 whole entry): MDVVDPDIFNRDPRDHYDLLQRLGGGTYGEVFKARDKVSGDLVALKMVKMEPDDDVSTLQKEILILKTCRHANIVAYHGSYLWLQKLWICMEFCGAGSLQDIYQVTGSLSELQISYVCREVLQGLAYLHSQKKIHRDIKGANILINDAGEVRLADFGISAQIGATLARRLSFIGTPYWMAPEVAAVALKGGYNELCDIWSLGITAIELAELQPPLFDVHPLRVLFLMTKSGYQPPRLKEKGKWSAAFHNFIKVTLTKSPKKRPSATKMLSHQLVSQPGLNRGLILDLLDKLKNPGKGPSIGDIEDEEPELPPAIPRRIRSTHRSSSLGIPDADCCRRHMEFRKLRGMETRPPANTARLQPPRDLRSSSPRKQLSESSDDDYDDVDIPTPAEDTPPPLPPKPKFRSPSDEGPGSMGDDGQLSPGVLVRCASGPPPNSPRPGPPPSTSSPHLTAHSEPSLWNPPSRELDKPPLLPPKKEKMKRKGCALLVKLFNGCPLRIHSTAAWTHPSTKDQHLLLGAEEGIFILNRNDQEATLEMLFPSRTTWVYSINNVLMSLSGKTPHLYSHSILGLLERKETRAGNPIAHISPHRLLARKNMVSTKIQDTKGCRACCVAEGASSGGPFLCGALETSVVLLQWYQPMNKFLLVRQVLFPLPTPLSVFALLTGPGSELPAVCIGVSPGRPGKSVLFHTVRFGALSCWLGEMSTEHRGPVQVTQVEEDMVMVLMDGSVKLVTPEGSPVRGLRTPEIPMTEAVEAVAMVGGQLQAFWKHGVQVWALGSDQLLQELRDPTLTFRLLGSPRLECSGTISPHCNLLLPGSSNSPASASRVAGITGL
T1 sequence (P24723 whole entry): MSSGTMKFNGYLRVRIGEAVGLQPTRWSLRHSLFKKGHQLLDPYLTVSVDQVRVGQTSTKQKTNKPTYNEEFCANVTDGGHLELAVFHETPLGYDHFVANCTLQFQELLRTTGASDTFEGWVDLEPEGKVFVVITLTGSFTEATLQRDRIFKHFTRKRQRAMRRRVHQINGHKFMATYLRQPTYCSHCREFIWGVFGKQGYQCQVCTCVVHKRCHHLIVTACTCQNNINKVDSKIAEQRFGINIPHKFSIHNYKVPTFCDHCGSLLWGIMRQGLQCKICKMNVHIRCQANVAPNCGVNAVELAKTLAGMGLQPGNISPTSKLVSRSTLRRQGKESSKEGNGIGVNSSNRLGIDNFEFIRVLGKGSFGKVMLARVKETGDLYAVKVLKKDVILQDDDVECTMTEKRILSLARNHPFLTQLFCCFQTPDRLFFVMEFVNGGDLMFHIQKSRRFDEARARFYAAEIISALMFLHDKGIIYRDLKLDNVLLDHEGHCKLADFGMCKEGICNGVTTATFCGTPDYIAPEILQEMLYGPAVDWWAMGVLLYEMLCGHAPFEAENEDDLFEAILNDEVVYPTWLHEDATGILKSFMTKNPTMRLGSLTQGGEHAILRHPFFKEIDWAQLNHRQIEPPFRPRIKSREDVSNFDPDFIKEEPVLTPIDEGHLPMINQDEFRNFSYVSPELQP
T2 sequence (O95835 whole entry): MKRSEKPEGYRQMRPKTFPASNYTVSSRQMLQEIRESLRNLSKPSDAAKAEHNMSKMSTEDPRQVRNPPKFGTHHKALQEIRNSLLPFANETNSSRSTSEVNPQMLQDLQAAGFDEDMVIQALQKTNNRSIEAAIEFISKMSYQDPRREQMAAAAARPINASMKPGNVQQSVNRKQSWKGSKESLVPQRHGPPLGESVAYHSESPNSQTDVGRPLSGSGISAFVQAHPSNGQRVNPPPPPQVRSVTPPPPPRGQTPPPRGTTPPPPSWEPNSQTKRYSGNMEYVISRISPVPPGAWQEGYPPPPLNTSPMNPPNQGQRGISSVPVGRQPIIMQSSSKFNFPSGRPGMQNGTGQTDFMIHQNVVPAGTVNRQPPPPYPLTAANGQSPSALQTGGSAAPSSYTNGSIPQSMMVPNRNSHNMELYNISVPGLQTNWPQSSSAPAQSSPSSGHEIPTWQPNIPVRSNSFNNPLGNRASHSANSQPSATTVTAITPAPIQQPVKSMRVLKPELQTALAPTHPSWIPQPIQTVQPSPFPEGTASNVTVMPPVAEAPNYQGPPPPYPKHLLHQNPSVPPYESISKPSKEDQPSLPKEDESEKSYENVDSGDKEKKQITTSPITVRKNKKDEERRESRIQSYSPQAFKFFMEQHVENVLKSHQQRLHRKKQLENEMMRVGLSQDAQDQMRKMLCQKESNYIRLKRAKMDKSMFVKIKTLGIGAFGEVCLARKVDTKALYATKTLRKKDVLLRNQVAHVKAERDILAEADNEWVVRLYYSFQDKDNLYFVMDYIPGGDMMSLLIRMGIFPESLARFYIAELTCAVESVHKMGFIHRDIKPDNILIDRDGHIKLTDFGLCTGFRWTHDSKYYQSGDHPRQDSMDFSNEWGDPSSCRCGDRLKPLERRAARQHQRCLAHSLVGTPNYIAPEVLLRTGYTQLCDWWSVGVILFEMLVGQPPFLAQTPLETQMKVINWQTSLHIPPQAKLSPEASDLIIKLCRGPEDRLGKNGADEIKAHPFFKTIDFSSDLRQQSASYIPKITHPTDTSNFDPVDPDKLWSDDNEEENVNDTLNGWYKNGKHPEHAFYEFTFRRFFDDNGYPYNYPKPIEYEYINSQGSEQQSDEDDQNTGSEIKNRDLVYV

Cc1c(N2CCC3(CC2)CO[C@@H](C)[C@H]3N)nc(C)n(-c2cccc(Cl)c2Cl)c1=O (atropisomer, axis not shown; (Ra)) [Compound (10b), 6-((3S,4S)-4-amino-3-methyl-2-oxa-8-azaspiro[4.5]decan-8-yl)-3-(Ra)-(2,3-dichlorophenyl)-2,5-dimethylpyrimidin-4(3H)-one]
half-life [1, 12]: 8.23 h | AUC(0-t) [1, 12]: 3.91 µM·h | clearance ([1]; male, Beagle, dog, plasma, IV 1 mg/kg, read-out: Clp (converted)): 8.5 mL/min/kg | Vd ([1]; male, Beagle, dog, plasma, IV 1 mg/kg, read-out: Vdss): 5.46 L/kg | Cmax [1, 13]: 6.37 µM | Tmax [1, 13]: 0.83 h | AUC(0-t) [1, 13]: 48.2 µM·h | F ([1]; oral 10 mg/kg): 115% | half-life [2, 14]: 6.44 h | AUC(0-t) [2, 14]: 1.82 µM·h | clearance ([2]; male, cynomolgus monkey, plasma, IV 0.3 mg/kg, read-out: Clp (converted)): 6 mL/min/kg | Vd ([2]; male, cynomolgus monkey, plasma, IV 0.3 mg/kg, read-out: Vdss): 2.74 L/kg | Cmax [2, 15]: 0.43 µM | Tmax [2, 15]: 2.67 h | AUC(0-t) [2, 15]: 4.52 µM·h | F ([2]; oral 1 mg/kg): 52.3% | remaining ligand binding at 1 µM [3]: 34% | remaining binding at 1 µM [4]: 32% | ligand binding, % control [5]: 21 % control | ligand binding, % of control at 1 µM ([6]; 1 μM): 4.4% | Kd ([6]; dose-response curve): 9.8 µM | IC50 [7]: > 100 µM | inhibition of hERG activity relative to vehicle control ([7]; 100 μM): 25.7% | effect on hERG channel activity ([7]; 0.3 to 30 μM): no effect | number of kinases with displacement <35% of control [8]: 4 | suppression of DUSP6 mRNA levels in tumors ([9]; 25 mg/kg PO, 4-hour after a single dose): > 90% | suppression of DUSP6 mRNA levels in tumors ([9]; 25 mg/kg PO, 16-hour after a single dose): < 50% | suppression of DUSP6 mRNA levels in tumors ([9]; 25 mg/kg or 100 mg/kg PO, 24-hour after a single dose): neither treatment significantly suppressed | suppression of DUSP6 mRNA levels in tumors ([9]; 100 mg/kg PO, 4-hour after a single dose): > 90% | suppression of DUSP6 mRNA levels in tumors ([9]; 100 mg/kg PO, 16-hour after a single dose): > 50% | IC50 ([9]; PK/PD relationship, read-out: in vivo IC50): 1.5 µM | IC50 ([9]; read-out: KYSE-520 xenograft DUSP6 IC50): 0.656 µg/mL | Cmax ([9]; prediction used as reference line for human plasma levels, read-out: predicted efficacious Cmax): 5.3 µM | suppression of the MPAS-plus signature in the tumor ([9]; single oral dose or five doses, 25 mg/kg or 100 mg/kg): dose- and time-dependent suppression | Tmax ([10]; oral 1-100 mg/kg): 0.25 to 3.67 h | bioavailability ([10]; oral doses 3- to 30-fold higher than intravenous doses, read-out: apparent oral bioavailabilities): 51.2 to 115% | half-life [11, 16]: 2.21 h | AUC(0-t) [11, 16]: 1.39 µM·h | clearance ([11]; female, CD-1, mouse, plasma, IV 1 mg/kg, free base, read-out: Clp (converted)): 25.7 mL/min/kg | Vd ([11]; female, CD-1, mouse, plasma, IV 1 mg/kg, free base, read-out: Vdss): 3.84 L/kg | Cmax [11, 17]: 4.17 µM | AUC(0-t) [11, 17]: 12.5 µM·h | Tmax ([11]; female, CD-1, mouse, plasma, oral 10 mg/kg, free base, read-out: Tmax (mean)): 0.25 h | Tmax ([11]; female, CD-1, mouse, plasma, oral 300 mg/kg, read-out: mean Tmax): 0.25 h | F ([11]; oral 10 mg/kg, free base): 84.1%
